# Test results published in ChEMBL document CHEMBL1201862, “PubChem BioAssay data set” (2004).
#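 How tested: cells in 96-well plates exposed to compound for 48 hours at five concentrations. At the GI50, growth is halved.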 Calls of active or inactive are those of the source. No stated cut-off is given here; in the data, active = GI50 up to about 1.1 µM and inactive = higher.
# Assays:
# Assay in all cases: DTP human tumour cell line panel, 48 h
# [1] = system: DU-145
# [2] = system: UACC-257
# [3] = system: OVCAR-3
# [4] = system: NCI-H23
# [5] = system: OVCAR-5
# [6] = system: NCI-H460
# [7] = system: MDA-MB-231
# [8] = system: IGROV-1
# [9] = system: COLO 205
# [10] = system: NCI/ADR-RES
# [11] = system: SNB-75
# [12] = system: SF-268
# [13] = system: BT-549
# [14] = system: SW-620
# [15] = system: OVCAR-8
# [16] = system: Hs-578T
# [17] = system: SF-539
# [18] = system: NCI-H226
# [19] = system: LOX IMVI
# [20] = system: MDA-MB-435
# [21] = system: SN12C
# [22] = system: Malme-3M
# [23] = system: SK-OV-3
# [24] = system: UACC-62
# [25] = system: HCT-15
# [26] = system: 786-0
# [27] = system: SF-295
# [28] = system: CCRF-CEM
# [29] = system: HCT-116
# [30] = system: MCF7
# [31] = system: K562
# [32] = system: T47D
# [33] = system: SK-MEL-2
# [34] = system: SNB-19
# [35] = system: RXF 393
# [36] = system: HOP-62
# [37] = system: A498
# [38] = system: HCC 2998
# [39] = system: OVCAR-4
# [40] = system: EKVX
# [41] = system: HT-29
# [42] = system: SK-MEL-28
# [43] = system: U-251
# [44] = system: PC-3
# [45] = system: KM12
# [46] = system: SR
# [47] = system: UO-31
# [48] = system: MOLT-4
# [49] = system: HOP-92
# [50] = system: SK-MEL-5
# [51] = system: HL-60
# [52] = system: M14
# [53] = system: A549
# [54] = system: MDA-N
# [55] = system: RPMI-8226
# [56] = system: CAKI-1
# [57] = system: ACHN
# [58] = system: TK-10
# [59] = system: NCI-H522
smiles,measurement,setting,value
CCOC(=O)c1ccc(C(=O)/C(C#N)=C2\CCCN2)[nH]1,GI50,[1],> 100 µM (inactive)
same,GI50,[2],> 100 µM (inactive)
same,GI50,[3],82.2 µM (inactive)
same,GI50,[4],> 100 µM (inactive)
same,GI50,[5],> 100 µM (inactive)
same,GI50,[6],> 100 µM (inactive)
same,GI50,[7],> 100 µM (inactive)
same,GI50,[8],> 100 µM (inactive)
same,GI50,[9],> 100 µM (inactive)
same,GI50,[10],78.3 µM (inactive)
same,GI50,[11],34 µM (inactive)
same,GI50,[12],> 100 µM (inactive)
same,GI50,[13],> 100 µM (inactive)
same,GI50,[14],79.4 µM (inactive)
same,GI50,[15],> 100 µM (inactive)
same,GI50,[16],> 100 µM (inactive)
same,GI50,[17],> 100 µM (inactive)
same,GI50,[18],> 100 µM (inactive)
same,GI50,[19],> 100 µM (inactive)
same,GI50,[20],28.8 µM (inactive)
same,GI50,[21],> 100 µM (inactive)
same,GI50,[22],> 100 µM (inactive)
same,GI50,[23],> 100 µM (inactive)
same,GI50,[24],> 100 µM (inactive)
same,GI50,[25],> 100 µM
same,GI50,[26],> 100 µM (inactive)
same,GI50,[27],> 100 µM (inactive)
same,GI50,[28],63.2 µM (inactive)
same,GI50,[29],82.4 µM (inactive)
same,GI50,[30],98.4 µM (inactive)
same,GI50,[31],52.6 µM (inactive)
same,GI50,[32],> 100 µM (inactive)
same,GI50,[33],97.1 µM (inactive)
same,GI50,[34],> 100 µM (inactive)
same,GI50,[35],14.8 µM (inactive)
same,GI50,[36],> 100 µM (inactive)
same,GI50,[37],> 100 µM (inactive)
same,GI50,[38],> 100 µM (inactive)
same,GI50,[39],> 100 µM (inactive)
same,GI50,[40],11.7 µM (inactive)
same,GI50,[41],72.3 µM (inactive)
same,GI50,[42],> 100 µM (inactive)
same,GI50,[43],> 100 µM (inactive)
same,GI50,[44],67.8 µM (inactive)
same,GI50,[45],55 µM (inactive)
same,GI50,[46],19.6 µM (inactive)
same,GI50,[47],> 100 µM (inactive)
same,GI50,[48],48.2 µM (inactive)
same,GI50,[49],> 100 µM (inactive)
same,GI50,[50],41.9 µM (inactive)
same,GI50,[51],66.5 µM (inactive)
same,GI50,[52],> 100 µM (inactive)
same,GI50,[53],50.5 µM (inactive)
same,GI50,[54],30.1 µM (inactive)
same,GI50,[55],> 100 µM (inactive)
same,GI50,[56],> 100 µM (inactive)
CC(=O)Nc1cc(/C=C\C(=O)N2CC(CCl)c3c2cc(N)c2ccccc32)n(C)n1 (centres undefined),GI50,[1],< 0.001 µM (active)
same,GI50,[2],0.0132 µM (active)
same,GI50,[3],0.0164 µM (active)
same,GI50,[4],0.00192 µM (active)
same,GI50,[5],0.0215 µM (active)
same,GI50,[6],< 0.001 µM (active)
same,GI50,[7],0.045 µM (active)
same,GI50,[8],0.0137 µM (active)
same,GI50,[9],0.0235 µM (active)
same,GI50,[57],< 0.001 µM (active)
same,GI50,[10],0.0216 µM (active)
same,GI50,[11],0.00165 µM (active)
same,GI50,[12],0.0057 µM (active)
same,GI50,[13],0.0199 µM (active)
same,GI50,[14],0.0123 µM (active)
same,GI50,[15],0.00168 µM (active)
same,GI50,[16],0.0543 µM (active)
same,GI50,[17],0.00621 µM (active)
same,GI50,[18],0.00805 µM (active)
same,GI50,[19],0.00879 µM (active)
same,GI50,[20],0.0169 µM (active)
same,GI50,[21],< 0.001 µM (active)
same,GI50,[22],0.012 µM (active)
same,GI50,[23],0.0163 µM (active)
same,GI50,[24],0.00423 µM (active)
same,GI50,[25],0.0233 µM
same,GI50,[26],0.00143 µM (active)
same,GI50,[27],0.0135 µM (active)
same,GI50,[28],< 0.001 µM (active)
same,GI50,[29],0.00149 µM (active)
same,GI50,[30],0.00204 µM (active)
same,GI50,[31],0.00417 µM (active)
same,GI50,[32],0.00299 µM (active)
same,GI50,[33],0.0166 µM (active)
same,GI50,[34],0.0386 µM (active)
same,GI50,[35],< 0.001 µM (active)
same,GI50,[36],0.00347 µM (active)
same,GI50,[37],0.00373 µM (active)
same,GI50,[38],0.0148 µM (active)
same,GI50,[58],0.0191 µM (active)
same,GI50,[39],0.017 µM (active)
same,GI50,[40],0.0251 µM (active)
same,GI50,[42],0.0144 µM (active)
same,GI50,[43],0.0031 µM (active)
same,GI50,[44],0.0233 µM (active)
same,GI50,[45],0.0167 µM (active)
same,GI50,[46],< 0.001 µM (active)
same,GI50,[47],0.00284 µM (active)
same,GI50,[48],0.00201 µM (active)
same,GI50,[49],0.0194 µM (active)
same,GI50,[50],0.00269 µM (active)
same,GI50,[51],< 0.001 µM (active)
same,GI50,[52],0.0115 µM (active)
same,GI50,[53],0.00614 µM (active)
same,GI50,[54],0.0185 µM (active)
same,GI50,[55],0.0179 µM (active)
same,GI50,[56],0.00129 µM (active)
CCCCCCCCCCCCCCCCCCNc1ccn(C2OC(COP(=O)(O)OCC3OC(n4cc(C)c(=O)[nH]c4=O)CC3O)C(O)C2O)c(=O)n1 (centres undefined),GI50,[1],17.8 µM (inactive)
same,GI50,[2],18.1 µM (inactive)
same,GI50,[3],19 µM (inactive)
same,GI50,[4],15.2 µM (inactive)
same,GI50,[5],14.8 µM (inactive)
same,GI50,[6],17.9 µM (inactive)
same,GI50,[7],14.6 µM (inactive)
same,GI50,[9],14.9 µM (inactive)
same,GI50,[57],21.1 µM (inactive)
same,GI50,[10],15.8 µM (inactive)
same,GI50,[11],17.5 µM (inactive)
same,GI50,[12],17.4 µM (inactive)
same,GI50,[13],14.7 µM (inactive)
same,GI50,[14],15.2 µM (inactive)
same,GI50,[15],17.8 µM (inactive)
same,GI50,[16],19.4 µM (inactive)
same,GI50,[17],17.3 µM (inactive)
same,GI50,[59],15.8 µM (inactive)
same,GI50,[18],23.7 µM (inactive)
same,GI50,[19],17.7 µM (inactive)
same,GI50,[20],16.9 µM (inactive)
same,GI50,[21],17.7 µM (inactive)
same,GI50,[22],16.6 µM (inactive)
same,GI50,[23],17.1 µM (inactive)
same,GI50,[24],18.4 µM (inactive)
same,GI50,[25],16.1 µM
same,GI50,[26],18 µM (inactive)
same,GI50,[27],18.7 µM (inactive)
same,GI50,[28],10.4 µM (inactive)
same,GI50,[29],17.1 µM (inactive)
same,GI50,[30],34.6 µM (inactive)
same,GI50,[31],19.8 µM (inactive)
same,GI50,[32],17.3 µM (inactive)
same,GI50,[34],15.4 µM (inactive)
same,GI50,[35],12 µM (inactive)
same,GI50,[36],16.7 µM (inactive)
same,GI50,[37],24.8 µM (inactive)
same,GI50,[38],16.7 µM (inactive)
same,GI50,[58],5.68 µM (inactive)
same,GI50,[39],15.1 µM (inactive)
same,GI50,[40],19.4 µM (inactive)
same,GI50,[41],16.7 µM (inactive)
same,GI50,[42],17.5 µM (inactive)
same,GI50,[43],18.9 µM (inactive)
same,GI50,[44],3.1 µM (inactive)
same,GI50,[45],18.3 µM (inactive)
same,GI50,[46],11.9 µM (inactive)
same,GI50,[47],18.5 µM (inactive)
same,GI50,[48],10.6 µM (inactive)
same,GI50,[49],29.9 µM (inactive)
same,GI50,[50],14.9 µM (inactive)
same,GI50,[52],17 µM (inactive)
same,GI50,[53],17.8 µM (inactive)
same,GI50,[54],18.4 µM (inactive)
same,GI50,[55],16.1 µM (inactive)
same,GI50,[56],18.4 µM (inactive)
